Experiments:
Type in all cases: cell-based
[1] = system: H23 NSCLC cells; assay: Caspase 3/7 activation, H23; design: key: −: lack of caspase 3/7 activation after 24 hours of compound treatment; ++: moderate; +++: strong; ++++: very strong; settings: H23, KRAS^G12c; BRG1 MUT, LKB1 MUT, CDKN2A WT; 24 hours
Description: (§2) Inhibition of cell growth and induction of apoptosis were determined by CellTiter-Glo® and caspase 3/7 activation assays after 72 and 24 hours of treatment, respectively.

[2] = system: H460 NSCLC cells; assay: Caspase 3/7 activation, H460; design: key: −: lack of caspase 3/7 activation after 24 hours of compound treatment; ++: moderate; +++: strong; ++++: very strong; settings: H460, KRAS^Q61H; BRG1 WT, LKB1 MUT, CDKN2A MUT; 24 hours
Description: (§3) A panel of 24 non-small cell lung carcinoma (NSCLC) cell lines harboring RAS mutations was analyzed for genomic alterations, gene expression profiling and protein phosphorylation in MAPK and PI3K pathways. Inhibition of cell growth and induction of apoptosis were determined by CellTiter-Glo® and caspase 3/7 activation assays after 72 and 24 hours of treatment, respectively.

[3] = system: H1355 NSCLC cells; assay: Caspase 3/7 activation, H1355; design: key: −: lack of caspase 3/7 activation after 24 hours of compound treatment; ++: moderate; +++: strong; ++++: very strong; settings: H1355, KRAS^G13C; BRG1 NULL, LKB1 MUT, CDKN2A WT; 24 hours
Description: as §3

[4] = system: A549 NSCLC cells; assay: Caspase 3/7 activation, A549; design: key: −: lack of caspase 3/7 activation after 24 hours of compound treatment; ++: moderate; +++: strong; ++++: very strong; settings: A549, KRAS^G12S; BRG1 MUT, LKB1 MUT, CDKN2A MUT; 24 hours
Description: as §2

[5] = system: Ras mutant cell lines; assay: Cell proliferation assays, Ras mutant cell lines; settings: in vitro
Description: (§1) MEK proteins are a node in a certain extracellular signal-related kinase ERK pathway which is commonly hyper-activated In tumor cells. Oncogenic mutations in both B-raf and Ras signal through MEK1 and MEK2. In vitro, 80% of cell lines carrying activating mutations of B-Raf and 72% of Ras mutant cell lines were sensitive to N-{3-[3-cyclopropyl-5-(2-fluoro-4-iodo-phenylamino)-6,8-dimethyl-2,4,7-trioxo-3,4,6,7-tetrahydro-2H-pyrido[4,3-d]pyrimidin-1-yl]phenyl}acetamide, or a pharmaceutically acceptable salt in cell proliferation assays, and a majority (83% of hematopoietic cancers from acute or chronic myeloid leukemia (AML or CML, respectively) origins were also very sensitive.

[6] = system: H1299 NSCLC cells; assay: Caspase 3/7 activation, H1299; design: key: −: lack of caspase 3/7 activation after 24 hours of compound treatment; ++: moderate; +++: strong; ++++: very strong; settings: H1299, KRAS^Q61H; BRG1 MUT, LKB1 WT, CDKN2A WT; 24 hours
Description: as §2

[7] = system: cell lines carrying activating mutations of B-Raf; assay: Cell proliferation assays, B-Raf mutant cell lines; settings: in vitro
Description: as §1

[8] = system: hematopoietic cancers from acute or chronic myeloid leukemia (AML or CML) origins; assay: Cell proliferation assays, AML/CML lines; settings: in vitro
Description: as §1

[9] = system: H1573 NSCLC cells; assay: Caspase 3/7 activation, H1573; design: key: −: lack of caspase 3/7 activation after 24 hours of compound treatment; ++: moderate; +++: strong; ++++: very strong; settings: H1573, KRAS^G12A; BRG1 MUT, LKB1 WT, CDKN2A WT; 24 hours
Description: as §3

[10] = system: RAS-mutant NSCLC cell lines; assay: Induction of apoptosis (caspase 3/7 activation) in panel of RAS-mutant NSCLC cell lines; settings: Ras mut NSCLC cell lines, caspase 3/7 activation, 24 hours of treatment, trihydrate
Description: as §3

| SMILES | Apoptosis Response (caspase 3/7 activation) [1] | Apoptosis Response (caspase 3/7 activation) [2] | Apoptosis Response (caspase 3/7 activation) [3] | Apoptosis Response (caspase 3/7 activation) [4] | Share of cell lines sensitive in cell proliferation assays [5] [%] | Apoptosis Response (caspase 3/7 activation) [6] | Share of cell lines sensitive in cell proliferation assays [7] [%] | Share of hematopoietic cancers very sensitive in cell proliferation assays [8] [%] | Apoptosis Response (caspase 3/7 activation) [9] | Response Rate (sensitivity/total lines tested), Cell Apoptosis (capsase 3/7) ([10]; listed as docetaxel) [%] | Response Rate (sensitivity/total lines tested), Cell Apoptosis (capsase 3/7) [10] |
| --- | --- | --- | --- | --- | --- | --- | --- | --- | --- | --- | --- |
| CC(=O)Nc1cccc(-n2c(=O)n(C3CC3)c(=O)c3c(Nc4ccc(I)cc4F)n(C)c(=O)c(C)c32)c1 [Compound A, N-{3-[3-cyclopropyl-5-(2-fluoro-4-iodo-phenylamino)-6,8-dimethyl-2,4,7-trioxo-3,4,6,7-tetrahydro-2H-pyrido[4,3-d]pyrimidin-1-yl]phenyl}acetamide] | − | − | − | − | 72 | − | 80 | 83 | − |  |  |
| CC(=O)O[C@@]12CO[C@@H]1C[C@H](O)[C@@]1(C)C(=O)[C@H](O)C3=C(C)[C@@H](OC(=O)[C@H](O)[C@@H](NC(=O)OC(C)(C)C)c4ccccc4)C[C@@](O)([C@@H](OC(=O)c4ccccc4)[C@H]21)C3(C)C [Docataxel, (2R,3S)—N-carboxy-3-phenylisoserine,N-tert-butyl ester, 13-ester with 5β-20-epoxy-1,2α,4,7β,10β,13α-hexahydroxytax-11-en-9-one 4-acetate 2-benzoate, trihydrate] | +++ | ++ | − | − |  | − |  |  | ++ | 42 | 42% (10/24) |
